Results as given in patent publication US9896435B2, “N-pyrrolidinyl,N′-pyrazolyl-urea, thiourea, guanidine and cyanoguanidine compounds as TrkA kinase inhibitors” (Array BioPharma Inc., priority 2012, dated 2018).

What was measured:
Assay in all cases: KinaseProfiler off-target kinase profiling
Assay type in all cases: biochemical
Conditions in all cases: 10 μM, ATP near Km
[1] = molecular target: ULK3 (Homo sapiens (Human), UniProt Q6PHR2)
In short: (§1)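 Duplicate measurements were taken for compound at 10 μM with ATP near each kinase's Km. Values represent mean percent of control.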

[2] = molecular target: CAMK2d (Homo sapiens (Human), UniProt Q13557)
In short: as §1

[3] = molecular target: EphB1 (Homo sapiens (Human), UniProt P54762)
In short: as §1

[4] = molecular target: PRKG1alpha (Homo sapiens (Human), UniProt Q13976)
In short: as §1

[5] = molecular target: Lyn (Homo sapiens (Human), UniProt P07948)
In short: as §1

[6] = molecular target: GRK6 (Homo sapiens (Human), UniProt P43250)
In short: as §1

[7] = molecular target: CDK2/cyclinA (Homo sapiens (Human), UniProt P24941)
In short: as §1

[8] = molecular target: MYLK (Homo sapiens (Human), UniProt Q15746)
In short: as §1

[9] = molecular target: IRR (Homo sapiens (Human), UniProt P14616)
In short: as §1

[10] = molecular target: CK1gamma1 (Homo sapiens (Human), UniProt Q9HCP0)
In short: as §1

[11] = molecular target: Yes (Homo sapiens (Human), UniProt P07947)
In short: as §1

[12] = molecular target: CDK9/cyclinT1 (Homo sapiens (Human), UniProt P50750)
In short: as §1

[13] = molecular target: Lck (Homo sapiens (Human), UniProt P06239)
In short: as §1

[14] = molecular target: Ros (Homo sapiens (Human), UniProt P08922)
In short: as §1

[15] = molecular target: Flt1 (Homo sapiens (Human), UniProt P17948)
In short: as §1

[16] = molecular target: FGFR3 (Homo sapiens (Human), UniProt P22607)
In short: as §1

[17] = molecular target: PKCepsilon (Homo sapiens (Human), UniProt Q02156)
In short: as §1

[18] = molecular target: CSK (Homo sapiens (Human), UniProt P41240)
In short: as §1

[19] = molecular target: LKB1 (Homo sapiens (Human), UniProt Q15831)
In short: as §1

[20] = molecular target: IR Activated (Homo sapiens (Human), UniProt P06213)
In short: as §1

[21] = molecular target: FGFR4 (Homo sapiens (Human), UniProt P22455)
In short: as §1

[22] = molecular target: MAPKAP-K2 (Homo sapiens (Human), UniProt P49137)
In short: as §1

[23] = molecular target: Flt3 (Homo sapiens (Human), UniProt P36888)
In short: as §1

[24] = molecular target: FAK (Homo sapiens (Human), UniProt Q05397)
In short: as §1

[25] = molecular target: Axl (Homo sapiens (Human), UniProt P30530)
In short: as §1

[26] = molecular target: Pim-3 (Homo sapiens (Human), UniProt Q86V86)
In short: as §1

[27] = molecular target: p38delta (Homo sapiens (Human), UniProt O15264)
In short: as §1

[28] = molecular target: ITK (Homo sapiens (Human), UniProt Q08881)
In short: as §1

[29] = molecular target: DAPK1 (Homo sapiens (Human), UniProt P53355)
In short: as §1

[30] = molecular target: SIK (Homo sapiens (Human), UniProt P57059)
In short: as §1

[31] = molecular target: DAPK3 (Homo sapiens (Human), UniProt O43293)
In short: as §1

[32] = molecular target: MRCKbeta (Homo sapiens (Human), UniProt Q9Y5S2)
In short: as §1

[33] = molecular target: Rse (Homo sapiens (Human), UniProt Q06418)
In short: as §1

[34] = molecular target: CAMK1 (Homo sapiens (Human), UniProt Q14012)
In short: as §1

[35] = molecular target: GRK7 (Homo sapiens (Human), UniProt Q8WTQ7)
In short: as §1

[36] = molecular target: CLK3 (Homo sapiens (Human), UniProt P49761)
In short: as §1

[37] = molecular target: STK33 (Homo sapiens (Human), UniProt Q9BYT3)
In short: as §1

[38] = molecular target: HIPK2 (Homo sapiens (Human), UniProt Q9H2X6)
In short: as §1

Chain of DAPK1 (P53355 whole entry): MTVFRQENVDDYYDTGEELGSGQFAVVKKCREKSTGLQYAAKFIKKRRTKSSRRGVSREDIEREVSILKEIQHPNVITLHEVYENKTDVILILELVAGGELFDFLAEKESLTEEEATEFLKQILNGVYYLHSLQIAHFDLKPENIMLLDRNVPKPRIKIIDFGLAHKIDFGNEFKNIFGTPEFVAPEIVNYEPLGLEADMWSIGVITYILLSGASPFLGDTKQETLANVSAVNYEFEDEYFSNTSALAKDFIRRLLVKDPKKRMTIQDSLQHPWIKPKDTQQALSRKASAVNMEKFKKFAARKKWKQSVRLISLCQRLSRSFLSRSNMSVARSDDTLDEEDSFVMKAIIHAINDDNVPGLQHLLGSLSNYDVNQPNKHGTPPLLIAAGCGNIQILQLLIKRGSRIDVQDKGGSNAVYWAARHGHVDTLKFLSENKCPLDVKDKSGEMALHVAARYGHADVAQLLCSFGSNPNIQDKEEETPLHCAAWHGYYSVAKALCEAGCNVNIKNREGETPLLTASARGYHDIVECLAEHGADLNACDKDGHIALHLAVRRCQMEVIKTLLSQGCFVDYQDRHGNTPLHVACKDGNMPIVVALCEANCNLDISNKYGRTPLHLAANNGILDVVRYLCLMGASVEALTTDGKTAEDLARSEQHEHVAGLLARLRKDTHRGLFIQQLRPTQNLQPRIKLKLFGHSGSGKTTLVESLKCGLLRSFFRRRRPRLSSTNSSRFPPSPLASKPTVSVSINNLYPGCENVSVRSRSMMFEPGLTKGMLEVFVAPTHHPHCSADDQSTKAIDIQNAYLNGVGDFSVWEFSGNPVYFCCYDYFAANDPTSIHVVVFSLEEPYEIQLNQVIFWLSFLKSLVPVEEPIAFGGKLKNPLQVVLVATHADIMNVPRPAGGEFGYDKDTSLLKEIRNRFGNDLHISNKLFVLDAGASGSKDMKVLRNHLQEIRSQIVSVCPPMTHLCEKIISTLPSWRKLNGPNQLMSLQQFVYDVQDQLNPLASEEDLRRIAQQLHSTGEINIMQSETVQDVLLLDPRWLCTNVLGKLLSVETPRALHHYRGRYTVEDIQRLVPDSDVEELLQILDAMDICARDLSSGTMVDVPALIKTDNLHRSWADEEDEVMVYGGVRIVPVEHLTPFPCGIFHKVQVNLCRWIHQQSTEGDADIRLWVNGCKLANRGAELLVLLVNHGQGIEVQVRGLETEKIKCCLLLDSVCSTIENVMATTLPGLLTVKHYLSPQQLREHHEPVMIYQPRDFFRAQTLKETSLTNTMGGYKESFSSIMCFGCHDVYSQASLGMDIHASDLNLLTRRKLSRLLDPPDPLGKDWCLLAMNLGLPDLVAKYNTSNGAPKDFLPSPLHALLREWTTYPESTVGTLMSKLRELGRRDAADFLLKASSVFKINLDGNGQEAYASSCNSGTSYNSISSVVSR
Chain of CAMK2d (Q13557 whole entry): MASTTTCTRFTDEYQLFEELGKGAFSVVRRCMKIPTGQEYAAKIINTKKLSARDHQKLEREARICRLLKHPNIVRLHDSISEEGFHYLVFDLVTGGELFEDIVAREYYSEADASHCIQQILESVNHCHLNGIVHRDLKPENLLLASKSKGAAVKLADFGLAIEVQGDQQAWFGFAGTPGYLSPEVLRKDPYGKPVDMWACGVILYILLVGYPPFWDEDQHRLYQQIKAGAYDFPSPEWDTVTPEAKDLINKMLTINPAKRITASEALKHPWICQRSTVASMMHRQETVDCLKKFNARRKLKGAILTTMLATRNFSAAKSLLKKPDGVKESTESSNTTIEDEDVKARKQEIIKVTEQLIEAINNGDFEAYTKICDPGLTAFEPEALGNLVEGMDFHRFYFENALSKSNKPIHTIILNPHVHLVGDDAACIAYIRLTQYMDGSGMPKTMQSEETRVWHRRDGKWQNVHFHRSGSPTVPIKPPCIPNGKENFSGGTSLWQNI
Chain of Flt1 (P17948 27-1338): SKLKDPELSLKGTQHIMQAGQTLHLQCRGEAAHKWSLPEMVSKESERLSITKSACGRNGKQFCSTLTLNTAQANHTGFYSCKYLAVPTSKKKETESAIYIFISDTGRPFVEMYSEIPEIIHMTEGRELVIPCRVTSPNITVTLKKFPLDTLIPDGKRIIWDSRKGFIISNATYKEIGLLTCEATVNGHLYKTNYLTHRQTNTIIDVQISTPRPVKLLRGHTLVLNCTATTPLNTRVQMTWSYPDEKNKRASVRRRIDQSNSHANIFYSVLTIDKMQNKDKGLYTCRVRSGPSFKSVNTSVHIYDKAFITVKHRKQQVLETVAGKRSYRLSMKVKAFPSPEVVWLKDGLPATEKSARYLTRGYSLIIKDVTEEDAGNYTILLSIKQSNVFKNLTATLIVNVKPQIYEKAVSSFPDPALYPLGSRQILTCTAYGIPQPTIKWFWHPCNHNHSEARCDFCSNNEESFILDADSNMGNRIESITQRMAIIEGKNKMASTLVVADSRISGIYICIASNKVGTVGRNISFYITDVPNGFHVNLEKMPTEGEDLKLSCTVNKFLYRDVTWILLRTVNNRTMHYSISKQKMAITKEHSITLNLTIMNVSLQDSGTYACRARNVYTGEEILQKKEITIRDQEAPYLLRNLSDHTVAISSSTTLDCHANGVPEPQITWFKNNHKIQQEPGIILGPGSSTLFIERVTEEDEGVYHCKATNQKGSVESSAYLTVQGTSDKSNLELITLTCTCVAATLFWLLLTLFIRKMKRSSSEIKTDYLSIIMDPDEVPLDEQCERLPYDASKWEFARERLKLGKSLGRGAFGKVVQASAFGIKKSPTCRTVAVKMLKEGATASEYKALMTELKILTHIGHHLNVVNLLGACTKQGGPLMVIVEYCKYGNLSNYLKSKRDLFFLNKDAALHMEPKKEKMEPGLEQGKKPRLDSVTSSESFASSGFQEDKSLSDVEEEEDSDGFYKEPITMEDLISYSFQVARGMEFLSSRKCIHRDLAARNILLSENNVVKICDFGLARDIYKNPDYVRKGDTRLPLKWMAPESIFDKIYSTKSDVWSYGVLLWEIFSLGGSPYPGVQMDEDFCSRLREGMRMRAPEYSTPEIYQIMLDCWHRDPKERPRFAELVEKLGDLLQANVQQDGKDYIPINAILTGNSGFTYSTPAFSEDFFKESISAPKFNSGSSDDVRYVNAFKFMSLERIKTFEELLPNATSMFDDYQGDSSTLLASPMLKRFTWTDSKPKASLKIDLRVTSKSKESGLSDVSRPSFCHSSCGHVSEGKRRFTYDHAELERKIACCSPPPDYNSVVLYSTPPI
Chain of DAPK3 (O43293 whole entry): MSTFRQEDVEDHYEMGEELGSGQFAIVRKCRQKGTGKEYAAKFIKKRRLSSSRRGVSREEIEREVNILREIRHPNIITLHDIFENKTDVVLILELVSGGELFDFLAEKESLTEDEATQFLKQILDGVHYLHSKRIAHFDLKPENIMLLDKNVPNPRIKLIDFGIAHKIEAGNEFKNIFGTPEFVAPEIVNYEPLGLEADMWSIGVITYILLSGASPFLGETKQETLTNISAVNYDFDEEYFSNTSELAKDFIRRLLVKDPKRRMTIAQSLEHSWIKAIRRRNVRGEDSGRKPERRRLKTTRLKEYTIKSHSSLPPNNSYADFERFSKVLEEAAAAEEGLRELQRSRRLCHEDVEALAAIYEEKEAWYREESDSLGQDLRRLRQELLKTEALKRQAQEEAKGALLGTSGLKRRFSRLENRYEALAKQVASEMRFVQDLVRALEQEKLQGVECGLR
Chain of p38delta (O15264 whole entry): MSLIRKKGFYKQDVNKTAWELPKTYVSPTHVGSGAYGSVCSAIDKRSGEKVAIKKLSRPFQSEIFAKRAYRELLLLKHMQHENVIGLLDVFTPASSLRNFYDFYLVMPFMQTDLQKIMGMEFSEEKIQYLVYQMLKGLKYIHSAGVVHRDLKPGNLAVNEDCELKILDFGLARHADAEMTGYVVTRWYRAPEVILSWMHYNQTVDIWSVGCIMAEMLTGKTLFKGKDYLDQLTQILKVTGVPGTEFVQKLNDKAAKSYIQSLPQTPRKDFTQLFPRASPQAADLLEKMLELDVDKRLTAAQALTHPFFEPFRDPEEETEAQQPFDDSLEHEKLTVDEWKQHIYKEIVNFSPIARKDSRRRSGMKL
Chain of CLK3 (P49761 whole entry): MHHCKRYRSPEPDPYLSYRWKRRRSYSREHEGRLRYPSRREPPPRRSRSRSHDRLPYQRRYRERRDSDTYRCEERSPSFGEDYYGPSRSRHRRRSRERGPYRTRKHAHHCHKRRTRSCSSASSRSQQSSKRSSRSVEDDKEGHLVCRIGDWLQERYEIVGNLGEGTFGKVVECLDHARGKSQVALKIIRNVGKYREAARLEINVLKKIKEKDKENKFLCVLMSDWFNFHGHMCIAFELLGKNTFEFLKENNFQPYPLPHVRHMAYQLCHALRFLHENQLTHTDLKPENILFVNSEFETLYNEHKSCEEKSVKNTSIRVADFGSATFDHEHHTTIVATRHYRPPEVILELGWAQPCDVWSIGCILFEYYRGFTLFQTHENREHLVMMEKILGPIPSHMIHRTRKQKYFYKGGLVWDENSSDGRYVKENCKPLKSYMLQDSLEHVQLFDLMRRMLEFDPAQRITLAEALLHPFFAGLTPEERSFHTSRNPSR
Chain of Lck (P06239 whole entry): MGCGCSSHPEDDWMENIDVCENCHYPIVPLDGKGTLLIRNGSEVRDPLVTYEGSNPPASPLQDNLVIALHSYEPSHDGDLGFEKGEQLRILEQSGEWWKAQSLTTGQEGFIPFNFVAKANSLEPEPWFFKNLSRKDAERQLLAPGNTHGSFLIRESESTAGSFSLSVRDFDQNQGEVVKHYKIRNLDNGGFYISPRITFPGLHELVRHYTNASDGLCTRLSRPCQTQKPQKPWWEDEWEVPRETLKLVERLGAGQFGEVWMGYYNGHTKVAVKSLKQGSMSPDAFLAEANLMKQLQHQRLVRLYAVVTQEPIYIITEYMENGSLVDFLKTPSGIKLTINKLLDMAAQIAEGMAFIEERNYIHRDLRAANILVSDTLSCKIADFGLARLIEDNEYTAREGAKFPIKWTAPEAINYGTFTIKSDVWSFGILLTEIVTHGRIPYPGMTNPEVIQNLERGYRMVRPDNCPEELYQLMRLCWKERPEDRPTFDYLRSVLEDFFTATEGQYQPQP

Avg POC [1] [POC] | Avg POC [2] [POC] | Avg POC [3] [POC] | Avg POC [4] [POC] | Avg POC [5] [POC] | Avg POC [6] [POC] | Avg POC [7] [POC] | Avg POC [8] [POC] | Avg POC [9] [POC] | Avg POC [10] [POC] | Avg POC [11] [POC] | Avg POC [12] [POC] | Avg POC [13] [POC] | Avg POC [14] [POC] | Avg POC [15] [POC] | Avg POC [16] [POC] | Avg POC [17] [POC] | Avg POC [18] [POC] | Avg POC [19] [POC] | Avg POC [20] [POC] | further results | SMILES
100 | 91.5 | 93.5 | 108 | 112 | 96.5 | 111 | 86.5 | 105 | 92 | 104 | 104 | 113 | 105 | 86 | 111.5 | 103.5 | 113 | 89.5 | 106.5 | Avg POC [21]: 105.5 POC; Avg POC [22]: 111 POC; Avg POC [23]: 119.5 POC; Avg POC [24]: 111.5 POC; Avg POC [25]: 117 POC; Avg POC [26]: 104 POC; Avg POC [27]: 107.5 POC; Avg POC [28]: 111 POC; Avg POC [29]: 97 POC; Avg POC [30]: 106.5 POC; Avg POC [31]: 107 POC; Avg POC [32]: 105 POC; Avg POC [33]: 96 POC; Avg POC [34]: 107 POC; Avg POC [35]: 104 POC; Avg POC [36]: 94 POC; Avg POC [37]: 94 POC; Avg POC [38]: 95 POC | COCCN1C[C@@H](NC(=O)Nc2c(C)c(-c3ccnc(C)c3)nn2-c2ccccc2)[C@H](c2ccc(F)c(F)c2)C1 [Example 2, 1-((3S,4R)-4-(3,4-difluorophenyl)-1-(2-methoxyethyl)pyrrolidin-3-yl)-3-(4-methyl-3-(2-methylpyridin-4-yl)-1-phenyl-1H-pyrazol-5-yl)urea]
98 | 105.5 | 97.5 | 100.5 | 105.5 | 97 | 113.5 | 101.5 | 96 | 80 | 55.5 | 104 | 112.5 | 91 | 81 | 133.5 | 114.5 | 103 | 103.5 | 100.5 | Avg POC [21]: 110 POC; Avg POC [22]: 101 POC; Avg POC [23]: 90 POC; Avg POC [24]: 98.5 POC; Avg POC [25]: 103 POC; Avg POC [26]: 108.5 POC; Avg POC [27]: 102.5 POC; Avg POC [28]: 101 POC; Avg POC [29]: 99.5 POC; Avg POC [30]: 96 POC; Avg POC [31]: 105.5 POC; Avg POC [32]: 98.5 POC; Avg POC [33]: 96.5 POC; Avg POC [34]: 103.5 POC; Avg POC [35]: 97 POC; Avg POC [36]: 94 POC; Avg POC [37]: 103.5 POC; Avg POC [38]: 99 POC | COCCN1C[C@@H](NC(=O)Nc2c(C)c(-c3cnc(C)nc3)nn2-c2ccccc2)[C@H](c2cc(F)cc(F)c2)C1 [Example 14, 1-((3S,4R)-4-(3,5-difluorophenyl)-1-(2-methoxyethyl)pyrrolidin-3-yl)-3-(4-methyl-3-(2-methylpyrimidin-5-yl)-1-phenyl-1H-pyrazol-5-yl)urea]
